Patent US11147272B2, “Pyridone compounds and agricultural and horticultural fungicides comprising the same as active ingredients” (MITSUI CHEMICALS AGRO, INC., priority 2017, dated 2021)

Columns and labels:
[1] = tested on: Blumeria graminis f. sp. hordei; assay: Test Example D: Powdery mildew on barley; details: Powdery mildew on barley; class of control value
[2] = tested on: Phytophthora infestans; assay: whole plant or invertebrate; type: in vivo; details: Late blight on tomato; class of control value
[3] = tested on: Magnaporthe grisea; assay: whole plant or invertebrate; type: in vivo; details: Blast on rice; class of control value
[4] = tested on: Botrytis cinerea; assay: Test Example B: Gray mold on tomato; details: Gray mold on tomato; class of control value
[5] = tested on: Puccinia recondita; assay: Test Example E: Brown rust on wheat; type: in vivo; details: Brown rust on wheat; class of control value
[6] = tested on: Colletotrichum orbiculare; assay: Test Example H: Anthracnose on cucumber; details: Anthracnose on cucumber (Sagami Hanjiro); 250 ppm spray, 2.5 ml/pot; assessed 6 to 10 days after inoculation
[7] = tested on: Plasmopara viticola; assay: Test Example G: Downy mildew on vine; details: Downy mildew on vine (Neomuscat); 250 ppm spray, 2.5 ml/pot; assessed 7 to 10 days after inoculation
[8] = tested on: Alternaia brassicicola; assay: Test Example C: Alternaria sooty spot on cabbage; type: in vivo; details: Alternaria sooty spot on cabbage; class of control value
Text: Seeds of a test plant (cabbage variety: Shikidori) were planted and cultivated until the cotyledons extended.
<Control Value> Control value=100{1−(n/3)}

| SMILES | Test D control value class [1] | Test F control value class [2] | Test A control value class [3] | Test B control value class [4] | Test E control value class [5] | Test H control value class [6] | Test G control value class [7] | Test C control value class [8] |
| --- | --- | --- | --- | --- | --- | --- | --- | --- |
| CCn1c(-c2ccc(Cl)cc2Cl)c(CC(C)C)ccc1=O [compound 135] | H (more than 50% control value) | L (50% or less control value) | H (more than 50% control value) | H (more than 50% control value) | H (more than 50% control value) | H (more than 50% control value) | H (more than 50% control value) | H (more than 50% control value) |
| CCn1c(-c2ccc(Br)cc2F)c(CC(C)C)ccc1=O [compound 136] | H (more than 50% control value) | L (50% or less control value) | H (more than 50% control value) | H (more than 50% control value) | H (more than 50% control value) | L (50% or less control value) | H (more than 50% control value) | L (50% or less control value) |
| CC(C)Cc1cc(Cl)c(=O)n(C)c1-c1ccc(Cl)cc1Cl [compound 137] | H (more than 50% control value) | L (50% or less control value) | H (more than 50% control value) | H (more than 50% control value) | H (more than 50% control value) | H (more than 50% control value) | H (more than 50% control value) | H (more than 50% control value) |
| CC(C)Cc1cc(Br)c(=O)n(C)c1-c1ccc(Cl)cc1Cl [compound 138] | L (50% or less control value) | L (50% or less control value) | H (more than 50% control value) | H (more than 50% control value) | H (more than 50% control value) | H (more than 50% control value) | L (50% or less control value) | H (more than 50% control value) |
| CCn1c(-c2ccc(Cl)cc2Cl)c(CC(C)C)cc(Cl)c1=O [compound 139] | H (more than 50% control value) | L (50% or less control value) | H (more than 50% control value) | H (more than 50% control value) | H (more than 50% control value) | H (more than 50% control value) | H (more than 50% control value) | H (more than 50% control value) |
| CCn1c(-c2ccc(Cl)cc2Cl)c(CC(C)C)cc(Br)c1=O [compound 140] | H (more than 50% control value) | L (50% or less control value) | H (more than 50% control value) | H (more than 50% control value) | H (more than 50% control value) | H (more than 50% control value) | H (more than 50% control value) | H (more than 50% control value) |
| CCn1c(-c2ccc(C)cc2F)c(CC(C)C)ccc1=O [compound 141] | H (more than 50% control value) | L (50% or less control value) | H (more than 50% control value) | H (more than 50% control value) | H (more than 50% control value) | L (50% or less control value) | H (more than 50% control value) | H (more than 50% control value) |
| CCn1c(-c2ccc(Br)cc2F)c(CC(C)C)cc(Br)c1=O [compound 142] | H (more than 50% control value) | L (50% or less control value) | H (more than 50% control value) | H (more than 50% control value) | H (more than 50% control value) | H (more than 50% control value) | H (more than 50% control value) | H (more than 50% control value) |
| CCn1c(-c2ccc(Br)cc2F)c(CC(C)C)cc(Cl)c1=O [compound 143] | H (more than 50% control value) | L (50% or less control value) | H (more than 50% control value) | H (more than 50% control value) | H (more than 50% control value) | H (more than 50% control value) | H (more than 50% control value) | H (more than 50% control value) |
| CCn1c(-c2ccc(F)cc2)c(CC(C)C)ccc1=O [compound 144] | H (more than 50% control value) | L (50% or less control value) | L (50% or less control value) | L (50% or less control value) | H (more than 50% control value) | L (50% or less control value) | H (more than 50% control value) | H (more than 50% control value) |
| CC(C)Cc1ccc(=O)n(C)c1-c1ccc(F)cc1 [compound 145] | L (50% or less control value) | L (50% or less control value) | L (50% or less control value) | L (50% or less control value) | H (more than 50% control value) | L (50% or less control value) | L (50% or less control value) | H (more than 50% control value) |
| CCn1c(-c2ccc(C)cc2F)c(CC(C)C)cc(Cl)c1=O [compound 146] | H (more than 50% control value) | L (50% or less control value) | H (more than 50% control value) | H (more than 50% control value) | H (more than 50% control value) | L (50% or less control value) | H (more than 50% control value) | H (more than 50% control value) |
| CCn1c(-c2ccc(C)cc2F)c(CC(C)C)cc(Br)c1=O [compound 147] | H (more than 50% control value) | L (50% or less control value) | H (more than 50% control value) | H (more than 50% control value) | H (more than 50% control value) | L (50% or less control value) | H (more than 50% control value) | H (more than 50% control value) |
| CCn1c(-c2ccc(F)cc2)c(CC(C)C)cc(Br)c1=O [compound 148] | H (more than 50% control value) | L (50% or less control value) | H (more than 50% control value) | H (more than 50% control value) | H (more than 50% control value) | H (more than 50% control value) | H (more than 50% control value) | H (more than 50% control value) |
| CCn1c(-c2ccc(F)cc2)c(CC(C)C)cc(Cl)c1=O [compound 149] | H (more than 50% control value) | L (50% or less control value) | H (more than 50% control value) | H (more than 50% control value) | H (more than 50% control value) | H (more than 50% control value) | H (more than 50% control value) | H (more than 50% control value) |
| CCn1c(-c2c(F)cc(F)cc2F)c(C(C)(C)O)cc(Cl)c1=O [compound 150] | H (more than 50% control value) | L (50% or less control value) | H (more than 50% control value) | H (more than 50% control value) | H (more than 50% control value) | H (more than 50% control value) | H (more than 50% control value) | H (more than 50% control value) |
| CCN(Cc1cc(Cl)c(=O)n(CC)c1-c1c(F)cc(F)cc1F)OC [compound 151] | H (more than 50% control value) | L (50% or less control value) | H (more than 50% control value) | H (more than 50% control value) | H (more than 50% control value) | H (more than 50% control value) | H (more than 50% control value) | H (more than 50% control value) |
